# In paper PMC8305236, “New Broth Macrodilution Volatilization Method for Antibacterial Susceptibility Testing of Volatile Agents and Evaluation of Their Toxicity Using Modified MTT Assay In Vitro” (Molecules, 2021):
# Like-named read-outs stand apart in the source and are kept apart here.
# Assays:
# [1] = tested on: Streptococcus pneumoniae ATCC 49619; experiment: broth macrodilution volatilization method (liquid and vapor phase MIC); format: cell-based; conditions: for MIC: Streptococcus pneumoniae, ATCC49619
# Text: (§1) The following four bacterial standard strains from the American Type Culture Collection (ATCC, Manassas, VA, USA) were used: Haemophilus influenzae ATCC 49247, Staphylococcus aureus ATCC 29213, Streptococcus pneumoniae ATCC 49619, and Streptococcus pyogenes ATCC 19615. Cultivation and assay media (broth/agar) were Mueller–Hinton (MH) complemented by Haemophilus Tested Medium (H. influenzae), MH (S. aureus), and Brain Heart Infusion (S. pneumoniae and S. pyogenes). The pH of the broths was equilibrated to a final value of 7.6 using Trizma base (Sigma-Aldrich, Praha, Czech Republic). […] cultivation media were purchased from Oxoid (Basingstoke, UK).
# (§2) Stock cultures of bacterial strains were cultivated in broth medium at 37 °C for 24 h prior to testing. For the preparation of inoculum, the turbidity of the bacterial suspension was adjusted to 0.5 McFarland standard using a Densi-La-Meter II (Lachema, Brno, Czech Republic) to obtain a final concentration of 10^8 CFU/mL.
# (§3) The antibacterial potential of volatile plant-derived compounds in the liquid and vapor phases was determined using a newly developed broth macrodilution volatilization method performed in standard 2 mL microtubes with snap caps (Eppendorf, Hamburg, Germany). Initially, each sample of compound was dissolved in DMSO at maximum concentration of 1% and diluted in the appropriate broth medium. […] The concentration of β-thujaplicin started from 1024 µg/mL and from 128 µg/mL for thymohydroquinone and thymoquninone. In the second step, 90 µL of melted agar was pipetted into rims on the caps (Figure 3a) and inoculated with 5 µL of bacterial suspension after agar solidification. Subsequently, the appropriate concentrations of each sample previously prepared in test tubes were pipetted into microtubes in a final volume of 1500 µL. Then, the microtubes were inoculated with 10 µL of bacterial suspension and closed properly (Figure 3b). Microtubes containing inoculated and non-inoculated media were prepared as growth and purity controls simultaneously. After incubation at 37 °C for 24 h, the MICs were evaluated by the visual assessment of bacterial growth after coloring metabolically active bacterial colonies with MTT dye. The respective volumes of 30 and 375 µL of MTT at a concentration of 600 µg/mL were pipetted into the caps and in the microtubes when the interface of color change from yellow to purple (relative to that of colors in control wells) was recorded in broth and agar (Figure 3c). […] The MIC values were determined as the lowest concentrations that inhibited bacterial growth compared with the compound-free control and are expressed in µg/mL. In the case of the vapor phase, the concentration was also expressed in µg/cm^3 as the weight of the volatile agent per volume unit of a microtube. […] The respective susceptibilities of H. influenzae, S. aureus, S. pneumoniae, and S. pyogenes to ampicillin, oxacillin, amoxicillin, and tetracycline were checked as positive antibiotic controls. All tests were performed as three independent experiments, each carried out in triplicate, and the results were presented as median/modal values. According to the widely accepted norm in MIC testing, the mode and median were used for the final value calculation when triplicate endpoints were within the two- and three-dilution ranges, respectively.
# [2] = tested on: Haemophilus influenzae ATCC 49247; experiment: as above; format: cell-based
# Text: as §1, §2, §3
# [3] = tested on: Staphylococcus aureus ATCC 29213; experiment: as above; format: cell-based
# Text: as §1, §2, §3
# [4] = tested on: Streptococcus pyogenes ATCC 19615; experiment: as above; format: cell-based; conditions: for MIC: Streptococcus pyogenes, ATCC19615
# Text: as §1, §2, §3
# [5] = tested on: respiratory pathogens; experiment: broth macrodilution volatilization method, all four bacteria together; format: cell-based; conditions: mean value of minimal inhibitory concentrations in broth medium
# Text: as §1, §2
# The antibacterial potential of volatile plant-derived compounds in the liquid and vapor phases was determined using a newly developed broth macrodilution volatilization method performed in standard 2 mL microtubes with snap caps (Eppendorf, Hamburg, Germany). Initially, each sample of compound was dissolved in DMSO at maximum concentration of 1% and diluted in the appropriate broth medium. […] After incubation at 37 °C for 24 h, the MICs were evaluated by the visual assessment of bacterial growth after coloring metabolically active bacterial colonies with MTT dye. The respective volumes of 30 and 375 µL of MTT at a concentration of 600 µg/mL were pipetted into the caps and in the microtubes when the interface of color change from yellow to purple (relative to that of colors in control wells) was recorded in broth and agar (Figure 3c). […] The MIC values were determined as the lowest concentrations that inhibited bacterial growth compared with the compound-free control and are expressed in µg/mL. […]
# [6] = tested on: normal lung fibroblast cells MRC-5; experiment: modified MTT cytotoxicity assay; conditions: for IC50: Homo sapiens, MRC5, 72 h, read-out: IC50 ± SD; for level of cytotoxic effect (WHO classification): classified by IC50 in lung fibroblast cells; for TI: therapeutic index, TI = IC80/x¯ -MIC
# Procedure: (§4) Lung fibroblast cell line MRC-5, obtained from ATCC, was propagated in Eagle’s Minimum Essential Medium (EMEM) supplemented with 10% fetal bovine serum (FBS), 2 mM glutamine, 10 µL/mL non-essential amino acids, and 1% penicillin–streptomycin solution (10,000 units/mL of penicillin and 10 mg/mL of streptomycin); all these components were purchased from Sigma-Aldrich. The cells were pre-incubated in 96-well microtiter plates at a density of 2.5 × 10^3 cells per well for 24 h at 37 °C in a humidified incubator in an atmosphere of 5% CO2 in air.
# (§5) A modified method based on the metabolization of MTT to blue formazan by mitochondrial dehydrogenases in living lung cells previously described by Mosmann was used. The lung fibroblast cells were treated for 72 h with the tested compounds dissolved in DMSO at a maximum concentration of 1% and diluted in the EMEM medium supplemented with 10% FBS. Twelve two-fold serially diluted concentrations of these agents ranging from 512 to 0.25 µg/mL were prepared. The microtiter plates were covered with EVA capmats^TM at 37 °C in a humidified atmosphere of 5% CO2 in air and cultivated for 72 h. Thereafter, MTT reagent (1 mg/mL) in EMEM solution was added to each well and the plates were incubated for an additional 2 h at 37 °C in a humidified atmosphere of 5% CO2 in air. The media were removed, and the intracellular formazan product was dissolved in 100 µL of DMSO. […] The absorbance was measured at 555 nm using a Tecan Infinite M200 spectrometer (Tecan Group, Mannedorf, Switzerland), and the viability was calculated in comparison to that of the untreated control. Three independent experiments (two replicates each) were performed for each test. […] Furthermore, IC80 was calculated as equivalent to the MIC endpoint for comparison of microbiological and toxicological data. Therapeutic indices (TIs) were defined as the ratio of x¯ -IC80 and x¯ -MIC values with the aim of determining the amount of effective antibacterial agents with the quantity causing toxicity.
# [7] = modified MTT cytotoxicity assay; conditions: human
# Procedure: as §4, §5
# [8] = tested on: S. aureus; conditions: cited from earlier work
# [9] = tested on: mouse fibroblasts; set-up: method as in PMID 17080016; conditions: cited from earlier work
# [10] = tested on: H. influenzae; set-up: method as in PMID 28223069; conditions: cited from earlier work
# [11] = tested on: S. aureus; set-up: method as in PMID 28223069; conditions: cited from earlier work
# [12] = tested on: healthy human lung MRC-5 cell lines; set-up: method as in PMID 28223069; conditions: cited from earlier work
# [13] = tested on: normal IMR-90 lung fibroblasts; set-up: method as in PMID 20711342; conditions: at a concentration of 32.84 µg/mL; cited from earlier work
# [14] = tested on: Trichophyton mentagrophytes; set-up: method as in PMID 16648950; conditions: disc volatilization method; cited from earlier work
# [15] = tested on: S. pneumoniae; set-up: method as in PMID 28223069; conditions: cited from earlier work
# [16] = tested on: S. pyogenes; set-up: method as in PMID 31106894; conditions: cited from earlier work
# [17] = tested on: oral microorganisms; set-up: method as in PMID 27681039; conditions: disc volatilization method; cited from earlier work
# [18] = tested on: human lung cancer tissues; set-up: method as in PMID 25105411, doi:10.1177/1934578X1801301223, doi:10.15324/kjcls.2019.51.2.221; conditions: various types of human lung cancer tissues; cited from earlier work
# [19] = tested on: S. pneumoniae; set-up: method as in PMID 31106894; conditions: cited from earlier work
# [20] = liquid phase, 37 °C, 24 h, read-out: Minimal Inhibitory Concentration, Broth
# [21] = ATCC49247, liquid phase, 37 °C, 24 h, read-out: Minimal Inhibitory Concentration, Broth
# [22] = ATCC29213, liquid phase, 37 °C, 24 h, read-out: Minimal Inhibitory Concentration, Broth
# [23] = MRC-5 normal lung fibroblast cells
# [24] = vapor phase, 37 °C, 24 h, read-out: Minimal Inhibitory Concentration, Agar
# [25] = vapor phase, weight of volatile agent per volume unit of microtube, read-out: Minimal Inhibitory Concentration, Agar
# [26] = ATCC29213, vapor phase, 37 °C, 24 h, read-out: Minimal Inhibitory Concentration, Agar
# [27] = ATCC29213, vapor phase, weight of volatile agent per volume unit of microtube, read-out: Minimal Inhibitory Concentration, Agar
# [28] = ATCC49247, vapor phase, 37 °C, 24 h, read-out: Minimal Inhibitory Concentration, Agar
# [29] = ATCC49247, vapor phase, weight of volatile agent per volume unit of microtube, read-out: Minimal Inhibitory Concentration, Agar
SMILES,"MIC [1, 20] [µg/mL]","MIC [2, 21] [µg/mL]","MIC [3, 22] [µg/mL]","MIC [4, 20] [µg/mL]",x¯ -MIC [5] [µg/mL],IC50 [6] [µg/mL],level of cytotoxic effect (WHO classification) [6],TI [6],"MIC [1, 24] [µg/mL]","MIC [1, 25] [µg/mL]","MIC [3, 26] [µg/mL]","MIC [3, 27] [µg/mL]","MIC [4, 24] [µg/mL]","MIC [4, 25] [µg/mL]",further results
"CC1(C)S[C@@H]2[C@H](NC(=O)[C@H](N)c3ccc(O)cc3)C(=O)N2[C@H]1C(=O)O [amoxicillin, reference compound]",0.25,–,–,–,–,–,–,–,–,–,–,–,–,–,–
"CC1(C)S[C@@H]2[C@H](NC(=O)[C@H](N)c3ccccc3)C(=O)N2[C@H]1C(=O)O [ampicillin, reference compound]",–,1,–,–,–,–,–,–,–,–,–,–,–,–,–
"Cc1onc(-c2ccccc2)c1C(=O)N[C@@H]1C(=O)N2[C@@H]1SC(C)(C)[C@@H]2C(=O)O [oxacillin, reference compound]",–,–,0.5,–,–,–,–,–,–,–,–,–,–,–,–
"CN(C)[C@@H]1C(O)=C(C(N)=O)C(=O)[C@@]2(O)C(O)=C3C(=O)c4c(O)cccc4[C@@](C)(O)[C@H]3C[C@@H]12 [tetracycline, reference compound]",–,–,–,0.25,–,–,–,–,–,–,–,–,–,–,–
Cc1cc(O)c(C(C)C)cc1O [thymohydroquinone],16,–,8,32,15,2.64 ± 0.33,moderate toxicity,>34.13,32,20,16,10,32,20,"IC80 at 72 h [7, 23]: > 512 µg/mL; MIC ([8]; S. aureus ATCC 25923): 400 µg/mL; cell growth inhibition ([9]; at 10 µg/mL): 21%; cell growth inhibition ([9]; at 100 µg/mL): 63%; MIC ([2]; ATCC49247, 24 h, read-out: Minimal Inhibitory Concentration, Agar): 8 µg/mL; MIC ([2]; ATCC49247, 24 h, read-out: Minimal Inhibitory Concentration, Broth): 4 µg/mL; MIC ([2]; ATCC49247, read-out: Minimal Inhibitory Concentration, Agar): 5 µg/mL"
CC1=CC(=O)C(C(C)C)=CC1=O [thymoquinone],16,4,8,32,15,1.21 ± 0.24,toxic,1.00,16,10,16,10,32,20,"MIC, liquid phase ([10]; liquid phase): 8 µg/mL; MIC, vapor phase ([10]; vapor phase): 8 µg/mL; MIC, liquid phase ([11]; liquid phase): 16 µg/mL; MIC, vapor phase ([11]; vapor phase): 16 µg/mL; IC80 at 72 h [7, 23]: 15 ± 4.46 µg/mL; IC50 [12]: 1.70 µg/mL; effect on viability [13]: did not alter the viability; MIC ([8]; S. aureus ATCC 29213 and ATCC 25923): 8 µg/mL; vapor activity [14]: very potent vapor activity; MIC, liquid phase ([15]; liquid phase): 16 µg/mL; MIC, vapor phase ([15]; vapor phase): 32 µg/mL; MIC [2, 28]: 8 µg/mL; MIC [2, 29]: 5 µg/mL"
"CCC1=C[C@@H]2CN(C1)Cc1c([nH]c3ccccc13)[C@@](C(=O)OC)(c1cc3c(cc1OC)N(C)[C@H]1[C@@](O)(C(=O)OC)[C@H](OC(C)=O)[C@]4(CC)C=CCN5CC[C@]31[C@@H]54)C2 [vinorelbin, reference compound]",–,–,–,–,–,–,–,–,–,–,–,–,–,–,"IC80 ± SD ([6]; 80% inhibitory concentration of proliferation, 72 h, plates sealed with EVA capmat): >10 µg/mL; IC50 ± SD ([6]; half maximal inhibitory concentration of proliferation, 72 h, plates sealed with EVA capmat): 0.54 ± 0.26 µg/mL"
CC(C)c1cccc(=O)c(O)c1 [β-thujaplicin],64,64,64,64,64,4.15 ± 0.45,moderate toxicity,3.36,1020,640,512,320,1020,640,"IC80 at 72 h [7]: 215 ± 9.71 µg/mL; MIC [16]: 0.3 to 1 µg/mL; growth-inhibitory effect in the gaseous phase [17]: certain level of growth-inhibitory effect; MIC ([8]; various strains of S. aureus): 12.5 to 160 µg/mL; Minimal Inhibitory Concentration, Agar ([1]; vapor phase, 37 °C, 24 h): low antibacterial efficacy; Minimal Inhibitory Concentration, Agar ([4]; vapor phase, 37 °C, 24 h): low antibacterial efficacy; MIC [2, 28]: 512 µg/mL; MIC [2, 29]: 320 µg/mL; IC50 [18]: 0.26 to 12.32 µg/mL; MIC [19]: 0.3 to 1 µg/mL"
